{"source": "patent US12077522B2", "about": "“Heterocyclic compound and application thereof” (Takeda Pharmaceutical Company Limited, priority 2018, dated 2024)", "data": [{"target": "T1, human orexin type 2 receptor (Homo sapiens, UniProt O43614)", "T1 construct": "expressed in transfected cells", "T1 sequence (O43614 1-444)": "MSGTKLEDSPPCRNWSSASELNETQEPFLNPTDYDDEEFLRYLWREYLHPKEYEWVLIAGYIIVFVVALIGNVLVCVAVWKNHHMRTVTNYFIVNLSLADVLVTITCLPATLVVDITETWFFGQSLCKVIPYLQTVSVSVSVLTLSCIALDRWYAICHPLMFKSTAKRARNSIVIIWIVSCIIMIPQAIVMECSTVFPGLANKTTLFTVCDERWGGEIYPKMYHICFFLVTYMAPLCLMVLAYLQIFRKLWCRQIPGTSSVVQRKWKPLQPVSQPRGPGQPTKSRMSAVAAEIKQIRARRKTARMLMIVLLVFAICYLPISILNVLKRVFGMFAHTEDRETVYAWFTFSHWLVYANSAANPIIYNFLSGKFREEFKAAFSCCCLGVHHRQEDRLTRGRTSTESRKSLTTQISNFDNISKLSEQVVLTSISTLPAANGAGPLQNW", "test": "Measurement of orexin type 2 receptor agonist activity (calcium fluorescence, Fluo-4 AM, FDSS)", "assay_type": "cell-based", "conditions": "compound at 3 μM; CHO cells forcibly expressing human OX2 receptor; DMSO = 0%, orexin A (human) 10 nM = 100%", "source_text": "To obtain a cell clone stably expressing human orexin type 2 receptor, human orexin type 2 receptor cDNA was inserted into pcDNA3.1(+) plasmid vector (Invitrogen), and a plasmid DNA for expression of human orexin type 2 receptor (pcDNA3.1(+)/hOX2R) was cloned. The plasmid DNA was introduced into CHO-dhfr cell by an electroporation method, and human orexin type 2 receptor expressing clone cells were obtained by limiting dilution method by using G418 drug resistance as a selection marker.\nCHO cells forcibly expressing human OX2 receptor were seeded in each well of 384 well black transparent bottom plate (BD Falcon) at 7,500 cells/well, and cultured for one day in a 5% CO2 incubator at 37° C. After removal of the medium in the cell plate, assay buffer A containing a calcium indicator (HBSS (Thermo Fisher Scientific), 20 mM HEPES (Thermo Fisher Scientific), 0.1% BSA (Wako Pure Chemical Industries, Ltd. or Sigma-Aldrich), 2.5 μg/mL Fluo-4 AM (DOJINDO Chemical), 0.08% Pluronic F127 (DOJINDO Chemical), 1.25 mM probenecid (DOJINDO Chemical)) was added at 30 μL/well. The plate was stood for 30 min in a 5% CO2 incubator at 37° C., and further stood at room temperature for 30 min. A test compound prepared by diluting with assay buffer B (HBSS, 20 mM HEPES, 0.1% BSA) was added at […], and the fluorescence value was measured by FDSSpCELL (Hamamatsu Photonics K.K.) every one sec for 1 min, and thereafter every two sec for 1 min 40 sec. The activity (%) of the test compound was calculated assuming that variation in the fluorescence value when DMSO was added instead of the test compound was 0%, and variation in the fluorescence value when orexin A (human) (PEPTIDE INSTITUTE, INC.) was added at the final concentration of 10 nM was 100%. The activity of each compound at the concentration of 3 μM was shown below.", "units": {"OX2R agonist activity (3 μ M, %)": "%"}, "values": [{"smiles": "O=C(NC1CCCN(C(=O)N2CCC2)C1COC1CCN(c2ncccn2)CC1)[C@@H]1CCCO1", "note": "(stereo in doubt) [Example 7, (2S)-N-[cis-1-(azetidine-1-carbonyl)-2-({[1-(pyrimidin-2-yl)piperidin-4-yl]oxy}methyl)piperidin-3-yl]oxolane-2-carboxamide]", "OX2R agonist activity (3 μ M, %)": 67}, {"smiles": "O=C(NC1CCCN(C(=O)N2CCC2)C1COC1CCN(c2ncc(F)cn2)CC1)[C@@H]1CCCO1", "note": "(stereo in doubt) [Example 8, (2S)-N-[cis-1-(azetidine-1-carbonyl)-2-({[1-(5-fluoropyrimidin-2-yl)piperidin-4-yl]oxy}methyl)piperidin-3-yl]oxolane-2-carboxamide]", "OX2R agonist activity (3 μ M, %)": 83}, {"smiles": "O=C(NC1CCCN(C(=O)C2CCC2)C1COC1CCN(c2ncccn2)CC1)[C@@H]1CCCO1", "note": "(stereo in doubt) [Example 11, (2S)-N-[cis-1-(cyclobutanecarbonyl)-2-({[1-(pyrimidin-2-yl)piperidin-4-yl]oxy}methyl)piperidin-3-yl]oxolane-2-carboxamide]", "OX2R agonist activity (3 μ M, %)": 94}, {"smiles": "O=C(NC1CCCN(C(=O)C2CCC2)C1COC1CCN(c2ncc(F)cn2)CC1)[C@@H]1CCCO1", "note": "(stereo in doubt) [Example 12, (2S)-N-[cis-1-(cyclobutanecarbonyl)-2-({[1-(5-fluoropyrimidin-2-yl)piperidin-4-yl]oxy}methyl)piperidin-3-yl]oxolane-2-carboxamide]", "OX2R agonist activity (3 μ M, %)": 99}, {"smiles": "O=C(NC1CCCN(C(=O)C2(O)CCC2)C1COC1CCN(c2ncccn2)CC1)[C@@H]1CCCO1", "note": "(stereo in doubt) [Example 13, (2S)-N-[cis-1-(1-hydroxycyclobutane-1-carbonyl)-2-({[1-(pyrimidin-2-yl)piperidin-4-yl]oxy}methyl)piperidin-3-yl]oxolane-2-carboxamide]", "OX2R agonist activity (3 μ M, %)": 81}, {"smiles": "O=C(NC1CCCN(C(=O)C2(O)CCC2)C1COC1CCN(c2ncc(F)cn2)CC1)[C@@H]1CCCO1", "note": "(stereo in doubt) [Example 14, (2S)-N-[cis-2-({[1-(5-fluoropyrimidin-2-yl)piperidin-4-yl]oxy}methyl)-1-(1-hydroxycyclobutane-1-carbonyl)piperidin-3-yl]oxolane-2-carboxamide]", "OX2R agonist activity (3 μ M, %)": 92}, {"smiles": "CC(C)OC(=O)N1CCCC(NC(=O)[C@@H]2CCCO2)C1COC1CCN(c2ncccn2)CC1", "note": "(stereo in doubt) [Example 15, propan-2-yl cis-3-{[(2S)-oxolane-2-carbonyl]amino}-2-({[1-(pyrimidin-2-yl)piperidin-4-yl]oxy}methyl)piperidine-1-carboxylate]", "OX2R agonist activity (3 μ M, %)": 96}, {"smiles": "CC(C)OC(=O)N1CCCC(NC(=O)[C@@H]2CCCO2)C1COC1CCN(c2ncc(F)cn2)CC1", "note": "(stereo in doubt) [Example 16, propan-2-yl cis-2-({[1-(5-fluoropyrimidin-2-yl)piperidin-4-yl]oxy}methyl)-3-{[(2S)-oxolane-2-carbonyl]amino}piperidine-1-carboxylate]", "OX2R agonist activity (3 μ M, %)": 95}, {"smiles": "CN(C)C(=O)C(=O)NC1CCCN(C(=O)C2CCC2)C1COC1CCN(c2ncc(F)cn2)CC1", "note": "(stereo not drawn) [Example 4, N^~2^~- [cis-1-(cyclobutanecarbonyl)-2-({[1-(5-fluoropyrimidin-2-yl)piperidin-4-yl]oxy}methyl)piperidin-3-yl]-N^~1^~,N^~1^~-dimethylethanediamide]", "OX2R agonist activity (3 μ M, %)": 84}, {"smiles": "CCNC(=O)N1CCCC(NC(=O)C(=O)N(C)C)C1CO[C@H]1CC[C@@H](c2ccccc2)CC1", "note": "(stereo partly drawn) [Example 18, N^~2^~-[cis-1-(ethylcarbamoyl)-2-({[cis-4-phenylcyclohexyl]oxy}methyl)piperidin-3-yl]-N^~1^~,N^~1^~- dimethylethanediamide]", "OX2R agonist activity (3 μ M, %)": 98}, {"smiles": "CCNC(=O)N1CCCC(NC(=O)C(=O)N(C)C)C1CO[C@H]1CC[C@@H](c2ccc(F)cc2)CC1", "note": "(stereo partly drawn) [Example 19, N^~2^~-[cis-1-(ethylcarbamoyl)-2-({[cis-4-(4-fluorophenyl)cyclohexyl]oxy}methyl)piperidin-3-yl]-N^~1^~,N^~1^~- dimethylethanediamide]", "OX2R agonist activity (3 μ M, %)": 75}, {"smiles": "CCNC(=O)N1CCCC(NC(=O)C(=O)N(C)C)C1CO[C@H]1CC[C@@H](c2cccc(F)c2)CC1", "note": "(stereo partly drawn) [Example 21, N^~2^~-[cis-1-(ethylcarbamoyl)-2-({[cis-4-(3-fluorophenyl)cyclohexyl]oxy}methyl)piperidin-3-yl]-N^~1^~,N^~1^~- dimethylethanediamide]", "OX2R agonist activity (3 μ M, %)": 102}, {"smiles": "CCNC(=O)N1CCCC(NC(=O)C(=O)N(C)C)C1CO[C@H]1CC[C@@H](c2ccccc2F)CC1", "note": "(stereo partly drawn) [Example 22, N^~2^~-[cis-1-(ethylcarbamoyl)-2-({[cis-4-(2-fluorophenyl)cyclohexyl]oxy}methyl)piperidin-3-yl]-N^~1^~,N^~1^~- dimethylethanediamide]", "OX2R agonist activity (3 μ M, %)": 99}]}]}
